Experimental data published in patent publication US20060148858A1, “1, 2-Azole derivatives with hypoglycemic and hypolipidemic activity” (priority 2002, published 2006).

With `CCCC(=O)Nc1ccc(-n2cc(CCCOc3c(CC(=O)O)cccc3OC)c(C(C)C)n2)nc1` [Example 267, (2-{3-[1-(5-butyrylamino-2-pyridyl)-3-isopropyl-1H-pyrazol-4-yl]propoxy}-3-methoxyphenyl)acetic acid] as the molecule, how does the melting point read?
The melting point was 119 to 120 °C.

For `COc1cccc(CC(=O)O)c1OCCCc1cn(-c2ccc(NC(=O)C(C)C)cn2)nc1C(C)C` [Example 268, [3-methoxy-2-(3-{3-isopropyl-1-[5-(2-methylpropanoylamino)-2-pyridyl]-1H-pyrazol-4-yl}propoxy)phenyl]acetic acid], which melting point is on record?
Its melting point is 122 to 123 °C.

Which melting point does the source give for `COc1cccc(CC(=O)O)c1OCCCc1cn(-c2ccc(NS(C)(=O)=O)cn2)nc1C(C)C` [Example 269, (3-methoxy-2-{3-[3-isopropyl-1-(5-methylsulfonylamino-2-pyridyl)-1H-pyrazol-4-yl]propoxy}phenyl)acetic acid] here?
Its melting point is 176 to 177 °C.

For `CCc1cnc(-n2cc(CCCOc3c(CC(=O)O)cccc3OC)c(C(C)C)n2)nc1` [Example 276, (2-{3-[1-(5-ethylpyrimidin-2-yl)-3-isopropyl-1H-pyrazol-4-yl]propoxy}-3-methoxyphenyl)acetic acid], which melting point is on record?
Its melting point is 103 to 104 °C.

With `Cc1nn(-c2ccc(C(F)(F)F)cn2)cc1CCCOc1cc(CC(=O)O)n(C)n1` [Example 283, [1-methyl-3-(3-{3-methyl-1-[5-(trifluoromethyl)-2-pyridinyl]-1H-pyrazol-4-yl}propoxy)-1H-pyrazol-5-yl]acetic acid] as the molecule, how does the melting point read?
Its melting point is 143 to 144 °C.

For `CCOc1nn(-c2ccc(C(F)(F)F)cn2)cc1CCOc1cc(CC(=O)O)n(C)n1` [Example 284, [3-(2-{3-ethoxy-1-[5-(trifluoromethyl)-2-pyridinyl]-1H-pyrazol-4-yl}ethoxy)-1-methyl-1H-pyrazol-5-yl]acetic acid], which melting point is on record?
Its melting point is 156 to 158 °C.

With `CCOc1cc(OCCCc2cn(-c3cc(C(F)(F)F)ccn3)nc2OCC)ccc1CCC(=O)OC` [Example 285, methyl 3-[2-ethoxy-4-(3-{3-ethoxy-1-[4-(trifluoromethyl)-2-pyridinyl]-1H-pyrazol-4-yl}propoxy)phenyl]propanoate] as the molecule, how does the melting point read?
Its melting point is 79 to 81 °C.

For `CCOc1nn(-c2cc(C(F)(F)F)ccn2)cc1CCCOc1cccc(CC(=O)O)c1` [Example 286, [3-(3-{3-ethoxy-1-[4-(trifluoromethyl)-2-pyridinyl]-1H-pyrazol-4-yl}propoxy)phenyl]acetic acid], which melting point is on record?
The melting point was 128 to 130 °C.

Which melting point does the source give for `CCOc1nn(-c2cc(C(F)(F)F)ccn2)cc1CCCOc1ccc(CCC(=O)O)cc1OC` [Example 287, 3-[4-(3-{3-ethoxy-1-[4-(trifluoromethyl)-2-pyridinyl]-1H-pyrazol-4-yl}propoxy)-3-methoxyphenyl]propanoic acid] here?
The melting point was 111 to 112 °C.

Which melting point does the source give for `CCOc1nn(-c2cc(C(F)(F)F)ccn2)cc1CCCOc1ccccc1CC(=O)O` [Example 288, [2-(3-{3-ethoxy-1-[4-(trifluoromethyl)-2-pyridinyl]-1H-pyrazol-4-yl}propoxy)phenyl]acetic acid] here?
Its melting point is 121 to 122 °C.

For `CCOc1nn(-c2cc(C(F)(F)F)ccn2)cc1CCCOc1cccc(OC(C)(C)C(=O)O)c1` [Example 289, 2-[3-(3-{3-ethoxy-1-[4-(trifluoromethyl)-2-pyridinyl]-1H-pyrazol-4-yl}propoxy)phenoxy]-2-methylpropanoic acid], which melting point is on record?
The melting point was 98 to 99 °C.

For `CCCc1nn(-c2ccc(C(F)(F)F)cn2)cc1CCCCOc1c(CC(=O)O)cccc1OC` [Example 295, [3-methoxy-2-(4-{3-propyl-1-[5-(trifluoromethyl)-2-pyridinyl]-1H-pyrazol-4-yl}butoxy)phenyl]acetic acid], which melting point is on record?
Its melting point is 111 to 112 °C.

For `CCCc1nn(-c2ccc(C(F)(F)F)cc2)cc1CCCOc1c(CC(=O)O)cccc1OC` [Example 297, [3-methoxy-2-(3-{3-propyl-1-[4-(trifluoromethyl)phenyl]-1H-pyrazol-4-yl}propoxy)phenyl]acetic acid], which melting point is on record?
Its melting point is 95 to 96 °C.

With `CCOc1cc(OCCCc2cn(-c3cc(C(F)(F)F)ccn3)nc2OCC)ccc1CCC(=O)O` [Example 298, 3-[2-ethoxy-4-(3-{3-ethoxy-1-[4-(trifluoromethyl)-2-pyridinyl]-1H-pyrazol-4-yl}propoxy)phenyl]propanoic acid] as the molecule, how does the melting point read?
Its melting point is 119 to 120 °C.

Which melting point does the source give for `CCOc1cccc(CC(=O)O)c1OCCCc1cn(-c2ccc(C(F)(F)F)cn2)nc1OCC` [Example 301, [3-ethoxy-2-(3-{3-ethoxy-1-[5-(trifluoromethyl)-2-pyridinyl]-1H-pyrazol-4-yl}propoxy)phenyl]acetic acid] here?
Its melting point is 114 to 115 °C.

For `CC(C)c1nn(-c2ccc(Cl)cn2)cc1CCCOc1ccccc1CC(=O)O` [Example 308, (2-{3-[1-(5-chloro-2-pyridinyl)-3-isopropyl-1H-pyrazol-4-yl]propoxy}phenyl)acetic acid], which melting point is on record?
Its melting point is 141 to 142 °C.

Which melting point does the source give for `CC(C)c1nn(-c2ccccn2)cc1CCCOc1ccccc1CC(=O)O` [Example 309, (2-{3-[3-isopropyl-1-(2-pyridinyl)-1H-pyrazol-4-yl]propoxy}phenyl)acetic acid] here?
Its melting point is 140 to 142 °C.

With `CC(C)c1nn(-c2ccc(C(F)(F)F)cn2)cc1CCCOc1nn(C)cc1CCC(=O)O` [Example 310, 3-[3-(3-{3-isopropyl-1-[5-(trifluoromethyl)-2-pyridinyl]-1H-pyrazol-4-yl}propoxy)-1-methyl-1H-pyrazol-4-yl]propanoic acid] as the molecule, how does the melting point read?
Its melting point is 124 to 125 °C.

Which melting point does the source give for `COc1cccc(CC(=O)O)c1OCCCc1cn(-c2ccccn2)nc1C(C)C` [Example 312, (2-{3-[3-isopropyl-1-(2-pyridinyl)-1H-pyrazol-4-yl]propoxy}-3-methoxyphenyl)acetic acid] here?
Its melting point is 102 to 104 °C.

With `CCCc1nn(-c2ccc(C(F)(F)F)cn2)cc1CCCOc1nn(C)cc1CCC(=O)O` [Example 314, 3-[1-methyl-3-(3-{3-propyl-1-[5-(trifluoromethyl)-2-pyridinyl]-1H-pyrazol-4-yl}propoxy)-1H-pyrazol-4-yl]propanoic acid] as the molecule, how does the melting point read?
The melting point was 103 to 104 °C.

Which melting point does the source give for `CC(C)c1nn(-c2ccc(C(F)(F)F)cn2)cc1CCCOc1nn(C2CCCCC2)cc1CC(=O)O` [Example 317, [1-cyclohexyl-3-(3-{3-isopropyl-1-[5-(trifluoromethyl)-2-pyridinyl]-1H-pyrazol-4-yl}propoxy)-1H-pyrazol-4-yl]acetic acid] here?
The melting point was 116 to 117 °C.

Which melting point does the source give for `CCCc1nn(-c2ccc(C(F)(F)F)cn2)cc1CCCOc1nn(C2CCCCC2)cc1CC(=O)O` [Example 320, [1-cyclohexyl-3-(3-{3-propyl-1-[5-(trifluoromethyl)-2-pyridinyl]-1H-pyrazol-4-yl}propoxy)-1H-pyrazol-4-yl]acetic acid] here?
Its melting point is 127 to 128 °C.

For `CCCc1nn(-c2ccc(C(F)(F)F)cn2)cc1CCCOc1c(CC(=O)O)cnn1C` [Example 321, [1-methyl-5-(3-{3-propyl-1-[5-(trifluoromethyl)-2-pyridinyl]-1H-pyrazol-4-yl}propoxy)-1H-pyrazol-4-yl]acetic acid], which melting point is on record?
Its melting point is 136 to 138 °C.

With `COc1cccc(CCC(=O)O)c1OCCCc1cn(-c2ccc(C(F)(F)F)cn2)nc1C(C)C` [Example 323, 3-[2-(3-{3-isopropyl-1-[5-(trifluoromethyl)-2-pyridinyl]-1H-pyrazol-4-yl}propoxy)-3-methoxyphenyl]propanoic acid] as the molecule, how does the melting point read?
The melting point was 112 to 113 °C.
